Measurements: US8067419B2, “Piperazines as antimalarial agents” (Actelion Pharmaceuticals Ltd., priority 2005, dated 2011)

The compounds below were run on P. falciparum K1 (assay: Plasmodium falciparum in vitro assay ([3H] hypoxanthine incorporation)). Settings: 72 h, erythrocytic stages of P. falciparum K1 (strain resistant to chloroquine and pyrimethamine), human red cells, 48 h + 24 h with [3H] hypoxanthine.
Format: cell-based
Protocol: In vitro activity against erythrocytic stages of P. falciparum is determined using a [^3H] hypoxanthine incorporation assay. One strain resistant to chloroquine and pyrimethamine (P. falciparum K1) is used in the assays, and all test compounds are compared for activity with the standard drugs chloroquine (sigma C6628) and artemisinin (sigma-36, 159-3). Compounds are diluted in DMSO to 1 mM and added to parasite cultures incubated in RPMI 1640 medium without hypoxanthine, supplemented with HEPES (5.94 g/L), NaHCO3 (2.1 g/L), neomycin (100 U/mL), Albumax (5 g/L) and washed human red cells at 2.5% haematocrit (0.3% parasitaemia). Seven serial doubling dilutions of each drug are prepared in 96-well microtitre plates and incubated in a humidifying atmosphere at 37° C.; 4% CO2, 3% O2, 93% N2.
After 48 hours, 50 μl of [^3H] hypoxanthine (0.5 μCi) is added to each well of a plate. The plates are incubated for a further 24 hours under the same conditions. The plates are then harvested with a Betaplate cell harvester (Wallac) and washed with distilled water. The dried filters are inserted into a plastic foil with 10 mL of scintillation fluid, and counted in a Betaplate liquid scintillation counter. IC50 values are calculated from sigmoidal inhibition curves using Microsoft Excel.

SMILES | IC50
CCCCCc1ccc(CN(C(=O)/C=C/c2ccc(C(F)(F)F)cc2)[C@@H](Cc2ccccc2)C(=O)N2CCN(Cc3ccccc3)CC2)cc1 [Example 1, N—[(S)-1-benzyl-2-(4-benzyl-piperazin-1-yl)-2-oxo-ethyl]-N-(4-pentyl-benzyl)-3-(4-trifluoromethyl-phenyl)-acrylamide] | 3.8 nM
CCCCCc1ccc(CN(C(=O)/C=C/c2cccc(C(F)(F)F)c2)[C@@H](Cc2ccccc2)C(=O)N2CCN(Cc3ccccc3)CC2)cc1 [Example 2, N—[(S)-1-benzyl-2-(4-benzyl-piperazin-1-yl)-2-oxo-ethyl]-N-(4-pentyl-benzyl)-3-(3-trifluoromethyl-phenyl)-acrylamide] | 70 nM
CCCCCc1ccc(CN(C(=O)/C=C/c2ccccc2C(F)(F)F)[C@@H](Cc2ccccc2)C(=O)N2CCN(Cc3ccccc3)CC2)cc1 [Example 3, N—[(S)-1-benzyl-2-(4-benzyl-piperazin-1-yl)-2-oxo-ethyl]-N-(4-pentyl-benzyl)-3-(2-trifluoromethyl-phenyl)-acrylamide] | 375 nM
O=C([C@H](Cc1ccccc1)N(Cc1ccc(-c2ccncc2)nc1)C(=O)/C=C/c1ccc(C(F)(F)F)cc1)N1CCN(Cc2ccccc2)CC1 [Example 125, N—[(S)-1-benzyl-2-(4-benzyl-piperazin-1-yl)-2-oxo-ethyl]-N-[2,4′]bipyridinyl-5-ylmethyl-3-(4-trifluoromethyl-phenyl)-acrylamide] | 4.8 nM
CCCCOc1ccc(CN(C(=O)/C=C/c2ccc(C(F)(F)F)cc2)[C@@H](Cc2ccccc2)C(=O)N2CCN(Cc3ccccc3)CC2)cc1 [Example 29, N—[(S)-1-benzyl-2-(4-benzyl-piperazin-1-yl)-2-oxo-ethyl]-N-(4-butoxy-benzyl)-3-(4-trifluoromethyl-phenyl)-acrylamide] | 7.5 nM
O=C([C@H](Cc1ccccc1)N(Cc1ccc(N2CCCC2=O)nc1)C(=O)/C=C/c1ccc(C(F)(F)F)cc1)N1CCN(Cc2ccccc2)CC1 [Example 129, N—[(S)-1-benzyl-2-(4-benzyl-piperazin-1-yl)-2-oxo-ethyl]-N-[6-(2-oxo-pyrrolidin-1-yl)-pyridin-3-ylmethyl]-3-(4-trifluoromethyl-phenyl)-acrylamide] | 9.5 nM
CCCCCc1ccc(CN(C(=O)/C=C/c2ccc(OC)cc2)[C@@H](Cc2ccccc2)C(=O)N2CCN(Cc3ccccc3)CC2)cc1 [Example 4, N—[(S)-1-benzyl-2-(4-benzyl-piperazin-1-yl)-2-oxo-ethyl]-3-(4-methoxy-phenyl)-N-(4-pentyl-benzyl)-acrylamide] | 7 nM
CCCCCc1ccc(CN(C(=O)/C=C/c2ccc(C(F)(F)F)cc2)[C@@H](Cc2ccccc2)C(=O)N2CCN(Cc3ccc(C(F)(F)F)nc3)CC2)cc1 [Example 15] | 11 nM
CCCCCc1ccc(CN(C(=O)/C=C/c2cccc(OC)c2)[C@@H](Cc2ccccc2)C(=O)N2CCN(Cc3ccccc3)CC2)cc1 [Example 5, N—[(S)-1-benzyl-2-(4-benzyl-piperazin-1-yl)-2-oxo-ethyl]-3-(3-methoxy-phenyl)-N-(4-pentyl-benzyl)-acrylamide] | 19 nM
CCCCOc1ccc(CN(C(=O)/C=C/c2ccc(OC)cc2)[C@@H](Cc2ccccc2)C(=O)N2CCN(Cc3ccccc3)CC2)cc1 [Example 38] | 11 nM
CCCCCc1ccc(CN(C(=O)CCc2cc(C(F)(F)F)cc(C(F)(F)F)c2)[C@@H](Cc2ccccc2)C(=O)N2CCN(Cc3ccccc3)CC2)cc1 [Example 6, N—[(S)-1-benzyl-2-(4-benzyl-piperazin-1-yl)-2-oxo-ethyl]-3-(3,5-bis-trifluoromethyl-phenyl)-N-(4-pentyl-benzyl)-propionamide] | 588 nM
C[C@@H]1CC[C@H]2[C@@H](C)C(=O)O[C@@H]3O[C@@]4(C)CC[C@@H]1[C@]32OO4 [Artemisinin, artemisinin, reference compound] | 2 nM
COc1ccc(/C=C/C(=O)N(Cc2ccc(OCCCN(C)C)cc2)[C@@H](Cc2ccccc2)C(=O)N2CCN(Cc3ccccc3)CC2)cc1 [Example 43] | 8.3 nM
CCCCc1ccc(CN(C(=O)/C=C/c2ccc(C(F)(F)F)cc2)[C@@H](Cc2ccccc2)C(=O)N2CCN(Cc3ccccc3)CC2)cc1 [Example 33] | 6.9 nM
CC(C)Cc1ccc(CN(C(=O)/C=C/c2ccc(C(F)(F)F)cc2)[C@@H](Cc2ccccc2)C(=O)N2CCN(Cc3ccccc3)CC2)cc1 [Example 37] | 18 nM
